# pIC50: −log10 of the molar value. Numbered stars: 1 amine (or outer) side, 2 acyl side, 3 side chain; on linkers, the order of the positions; unused ones are H or OH. Bridge positions count the residues as written; N and C are the ends. Square brackets hold non-standard residues; d marks the D form. Peptide text beside a SMILES is read from it. * marks the point of attachment. hPhe(3-Cl-4-CF3) = N[C@@H](CCc1ccc(C(F)(F)F)c(Cl)c1)C(=O)O; hPhe(3-F,4-CF3) = N[C@@H](CCc1ccc(C(F)(F)F)c(F)c1)C(=O)O; X8 = CC(C)Oc1cc(CC[C@H](N[*:1])C(=O)[*:2])cc(Cl)c1Cl; NMePhe(4-CF3) = CN[C@@H](Cc1ccc(C(F)(F)F)cc1)C(=O)O; hPhe(4-CF3) = N[C@@H](CCc1ccc(C(F)(F)F)cc1)C(=O)O; NMePhe(3,4-F2) = CN[C@@H](Cc1ccc(F)c(F)c1)C(=O)O; NMePhe(4-Cl) = CN[C@@H](Cc1ccc(Cl)cc1)C(=O)O; NMePhe(4-Me) = CN[C@@H](Cc1ccc(C)cc1)C(=O)O; X116 = O=C([C@H](CCc1cccc(F)c1)N[*:1])[*:2]; NMedβ3hAla = C[C@H](CC(=O)[*:2])N(C)[*:1]; NMeGly(cPent) = CN[C@H](C(=O)O)C1CCCC1; NMe3Pal = CN[C@@H](Cc1cccnc1)C(=O)O; NMeCha = CN[C@@H](CC1CCCCC1)C(=O)O; Hyp = O=C(O)[C@@H]1C[C@@H](O)CN1; NMeAhp(2) = CCCCC[C@H](NC)C(=O)O; NMeChg = CN[C@H](C(=O)O)C1CCCCC1; NMeF = CN[C@@H](Cc1ccccc1)C(=O)O; NMeI = CC[C@H](C)[C@H](NC)C(=O)O; Gly(cBu) = N[C@H](C(=O)O)C1CCC1; NMeE = CN[C@@H](CCC(=O)O)C(=O)O; NMeβAla = CN(CCC(=O)[*:2])[*:1]; X17 = FC1(F)CN(*)CC(F)(F)C1(F)F; NMeD = CN[C@@H](CC(=O)O)C(=O)O; NMeL = CN[C@@H](CC(C)C)C(=O)O; NMeV = CN[C@H](C(=O)O)C(C)C; d(β3hA) = C[C@@H](N)CC(=O)O; NMeAbu = CC[C@H](NC)C(=O)O; dPip = O=C(O)[C@H]1CCCCN1; Morpholide = C1CN(*)CCO1; NMeA = CN[C@@H](C)C(=O)O; NMeAib = CNC(C)(C)C(=O)O; Piperidide = C1CCN(*)CC1; Pyrrolidide = C1CCN(*)C1; dNMeA = CN[C@H](C)C(=O)O; Ac5c = NC1(C(=O)O)CCCC1; Aze = O=C(O)[C@@H]1CCN1; Sar = CNCC(=O)O
# Biological target: protein-protein interaction between Kras and SOS1 (biotin-tagged human Kras loaded with GDP, His-tagged human SOS1) (Homo sapiens (Human), UniProt P01116, G12D)
# Assay: Protein-protein interaction inhibition between Kras and SOS1 (KrasG12D-SOS PPI) using AlphaScreen;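 note: kras produced in E. coli, Ni-coupled donor beads and streptavidin acceptor beads, excitation 680 nm with emission detected at 520–620 nm via singlet oxygen transfer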
# Assay type: biochemical
# Settings: not given
row,SMILES,pIC50
1,CC[C@H](C)[C@@H]1NC(=O)[C@H](CC(C)C)N(C)C(=O)C[C@@H](C(=O)N(C)C)N(C)C(=O)[C@H](C2CCCC2)N(C)C(=O)C2(CCCC2)NC(=O)[C@H](CC(=O)N2CCOCC2)N(C)C(=O)[C@H](CCc2ccc(C(F)(F)F)c(Cl)c2)NC(=O)CN(C)C(=O)[C@H](CC2CCCCC2)N(C)C(=O)[C@@H]2CCN2C(=O)[C@H](C)N(C)C1=O [Compound 2109] ([NMeL]I[NMeA][Aze][NMeCha][Sar][hPhe(3-Cl-4-CF3)][NMeD](Morpholide)[Ac5c][NMeGly(cPent)][NMeD]-NMe2; lactam N-11),8.74

# Same assay, conditions: AlphaScreen; biotin-tagged human Kras loaded with GDP, His-tagged human SOS1; read-out: KRAS G12D-SOS PPI IC50
row,SMILES,pIC50
1,"CC[C@H](C)[C@@H]1NC(=O)[C@H](CC(C)C)N(C)C(=O)CCN(C)C(=O)[C@H](CC(C)C)NC(=O)C(C)(C)N(C)C(=O)[C@H](CC(C)C)NC(=O)[C@H](CCc2ccc(C(F)(F)F)c(F)c2)NC(=O)CN(C)C(=O)[C@H](CC2CCCCC2)N(C)C(=O)CN(C)C(=O)CN(C)C1=O [Compound 832] (cyclo(I[Sar][Sar][NMeCha][Sar][hPhe(3-F,4-CF3)]L[NMeAib]L[NMeβAla][NMeL]))",6.92
2,CC[C@H](C)[C@@H]1NC(=O)[C@H](CC(C)C)N(C)C(=O)C[C@@H](C(=O)N(C)C)N(C)C(=O)[C@H](C(C)C)N(C)C(=O)C2(CCCC2)NC(=O)[C@@H]2CCCN2C(=O)[C@H](CCc2ccc(C(F)(F)F)c(Cl)c2)NC(=O)CN(C)C(=O)[C@H](Cc2ccc(C)cc2)N(C)C(=O)[C@@H]2CCN2C(=O)[C@H](C)N(C)C1=O [Compound 1653] ([NMeL]I[NMeA][Aze][NMePhe(4-Me)][Sar][hPhe(3-Cl-4-CF3)]P[Ac5c][NMeV][NMeD]-NMe2; lactam N-11),9.05
3,CC[C@H](C)[C@@H]1NC(=O)[C@H](C)N(C)C(=O)C[C@@H](C(=O)N2CCCCC2)N(C)C(=O)[C@H](C(C)C)N(C)C(=O)C2(CCCC2)NC(=O)[C@@H]2CCCN2C(=O)[C@H](CCc2cccc(F)c2)NC(=O)CN(C)C(=O)[C@H](CC2CCCCC2)N(C)C(=O)[C@@H]2CCN2C(=O)[C@H](C)N(C)C1=O [Compound 685] ([NMeA]I[NMeA][Aze][NMeCha][Sar][X116]P[Ac5c][NMeV][NMeD]-Piperidide; lactam N-11),6.89
4,CC[C@H](C)[C@@H]1NC(=O)[C@H](C)N(C)C(=O)C[C@@H](C(=O)N2CCCCC2)N(C)C(=O)[C@H](C2CCCCC2)N(C)C(=O)C2(CCCC2)NC(=O)[C@H](Cc2cccnc2)N(C)C(=O)[C@H](CCc2ccc(C(F)(F)F)c(Cl)c2)NC(=O)CN(C)C(=O)[C@H](CC2CCCCC2)N(C)C(=O)CN(C)C(=O)CN(C)C1=O [Compound 1012] ([NMeA]I[Sar][Sar][NMeCha][Sar][hPhe(3-Cl-4-CF3)][NMe3Pal][Ac5c][NMeChg][NMeD]-Piperidide; lactam N-11),8.92
5,"CC[C@H](C)[C@@H]1NC(=O)[C@H](CC(C)C)N(C)C(=O)C[C@@H](C(=O)N2CCCCC2)N(C)C(=O)[C@H](C(C)C)N(C)C(=O)C2(CCCC2)NC(=O)[C@@H]2CCCN2C(=O)[C@H](CCc2ccc(C(F)(F)F)c(F)c2)NC(=O)CN(C)C(=O)[C@H](CC2CCCCC2)N(C)C(=O)[C@@H]2CCN2C(=O)[C@H](C)N(C)C1=O [Compound 1040] ([NMeL]I[NMeA][Aze][NMeCha][Sar][hPhe(3-F,4-CF3)]P[Ac5c][NMeV][NMeD]-Piperidide; lactam N-11)",7.85
6,CC[C@H](C)[C@@H]1NC(=O)[C@H](CC(C)C)N(C)C(=O)C[C@@H](C(=O)N2CCCCC2)N(C)C(=O)[C@H](C2CCCCC2)N(C)C(=O)C2(CCCC2)NC(=O)[C@H](C)N(C)C(=O)[C@H](CCc2ccc(C(F)(F)F)c(Cl)c2)NC(=O)CN(C)C(=O)[C@H](CC2CCCCC2)N(C)C(=O)CN(C)C(=O)CN(C)C1=O [Compound 294] ([NMeL]I[Sar][Sar][NMeCha][Sar][hPhe(3-Cl-4-CF3)][NMeA][Ac5c][NMeChg][NMeD]-Piperidide; lactam N-11),8.85
7,CC(C)C[C@H]1C(=O)N[C@@H](C2CCC2)C(=O)N(C)[C@@H](C)C(=O)N2CC[C@H]2C(=O)N(C)[C@@H](CC2CCCCC2)C(=O)N(C)CC(=O)N[C@@H](CCc2ccc(C(F)(F)F)c(Cl)c2)C(=O)N2CCC[C@H]2C(=O)NC2(CCCC2)C(=O)N(C)[C@@H](C(C)C)C(=O)N(C)[C@H](C(=O)N2CCCCC2)CC(=O)N1C [Compound 157] ([NMeL][Gly(cBu)][NMeA][Aze][NMeCha][Sar][hPhe(3-Cl-4-CF3)]P[Ac5c][NMeV][NMeD]-Piperidide; lactam N-11),8.12
8,CC[C@H](C)[C@@H]1NC(=O)[C@H](C)N(C)C(=O)C[C@@H](C(=O)N2CCCCC2)N(C)C(=O)[C@H](C(C)C)N(C)C(=O)C2(CCCC2)NC(=O)[C@@H]2CCCN2C(=O)[C@H](CCc2ccc(C(F)(F)F)c(Cl)c2)NC(=O)[C@H]2CCCCN2C(=O)[C@H](CC2CCCCC2)N(C)C(=O)CN(C)C(=O)CN(C)C1=O [Compound 1118] ([NMeA]I[Sar][Sar][NMeCha][dPip][hPhe(3-Cl-4-CF3)]P[Ac5c][NMeV][NMeD]-Piperidide; lactam N-11),6.70
9,CC[C@H](C)[C@@H]1NC(=O)[C@H](CC(C)C)N(C)C(=O)C[C@@H](C(=O)N2CC(F)(F)C(F)(F)C(F)(F)C2)NC(=O)[C@H]([C@@H](C)CC)N(C)C(=O)C2(CCCC2)NC(=O)[C@@H]2CCCN2C(=O)[C@H](CCc2ccc(C(F)(F)F)c(Cl)c2)NC(=O)CN(C)C(=O)[C@H](CC2CCCCC2)N(C)C(=O)CN(C)C(=O)CN(C)C1=O [Compound 1265] ([NMeL]I[Sar][Sar][NMeCha][Sar][hPhe(3-Cl-4-CF3)]P[Ac5c][NMeI]D-X17; lactam N-11),6.55
10,"CC[C@H](C)[C@@H]1NC(=O)[C@H](C)N(C)C(=O)C[C@@H](C)NC(=O)[C@H](C2CCCC2)N(C)C(=O)C2(CCCC2)NC(=O)[C@@H]2CCCN2C(=O)[C@H](CCc2ccc(C(F)(F)F)c(Cl)c2)NC(=O)[C@@H](C)N(C)C(=O)[C@H](Cc2ccc(F)c(F)c2)N(C)C(=O)[C@@H]2CCN2C(=O)[C@H](C)N(C)C1=O [Compound 310] (cyclo([Ac5c][NMeGly(cPent)][d(β3hA)][NMeA]I[NMeA][Aze][NMePhe(3,4-F2)][dNMeA][hPhe(3-Cl-4-CF3)]P))",7.02
11,CC[C@H](C)[C@@H]1NC(=O)[C@H](C)N(C)C(=O)C[C@@H](C(=O)N2CCCCC2)N(C)C(=O)[C@H](C2CCCCC2)N(C)C(=O)C2(CCCC2)NC(=O)[C@@H]2CCCN2C(=O)[C@H](CCc2cc(Cl)c(Cl)c(OC(C)C)c2)NC(=O)CN(C)C(=O)[C@H](CC2CCCCC2)N(C)C(=O)CN(C)C(=O)CN(C)C1=O [Compound 2062] ([NMeA]I[Sar][Sar][NMeCha][Sar][X8]P[Ac5c][NMeChg][NMeD]-Piperidide; lactam N-11),8.16
12,CC[C@H](C)[C@@H]1NC(=O)[C@H](CC(C)C)N(C)C(=O)C[C@@H](C(=O)N2CCOCC2)N(C)C(=O)[C@H](C2CCCC2)N(C)C(=O)C2(CCCC2)NC(=O)[C@H](CCC(=O)N2CCCC2)N(C)C(=O)[C@H](CCc2ccc(C(F)(F)F)c(Cl)c2)NC(=O)CN(C)C(=O)[C@H](CC2CCCCC2)N(C)C(=O)[C@@H]2CCN2C(=O)[C@H](C)N(C)C1=O [Compound 2104] ([NMeL]I[NMeA][Aze][NMeCha][Sar][hPhe(3-Cl-4-CF3)][NMeE](Pyrrolidide)[Ac5c][NMeGly(cPent)][NMeD]-Morpholide; lactam N-11),8.00
13,CC[C@H](C)[C@@H]1NC(=O)[C@H](CC(C)C)N(C)C(=O)C[C@@H](C)NC(=O)[C@H](C(C)C)N(C)C(=O)C2(CCCC2)NC(=O)[C@@H]2CCCN2C(=O)[C@H](CCc2ccc(C(F)(F)F)c(Cl)c2)NC(=O)CN(C)C(=O)[C@H](Cc2ccc(Cl)cc2)N(C)C(=O)[C@@H]2CCN2C(=O)[C@H](C)N(C)C1=O [Compound 1018] (cyclo([Ac5c][NMeV][d(β3hA)][NMeL]I[NMeA][Aze][NMePhe(4-Cl)][Sar][hPhe(3-Cl-4-CF3)]P)),7.96
14,CCCCC[C@H]1C(=O)N[C@@H]([C@@H](C)CC)C(=O)N(C)[C@@H](C)C(=O)N2CC[C@H]2C(=O)N(C)[C@@H](CC2CCCCC2)C(=O)N(C)CC(=O)N[C@@H](CCc2ccc(C(F)(F)F)c(Cl)c2)C(=O)N2CCC[C@H]2C(=O)NC2(CCCC2)C(=O)N(C)[C@@H](C(C)C)C(=O)N(C)[C@H](C(=O)N2CCCCC2)CC(=O)N1C [Compound 1705] ([NMeAhp(2)]I[NMeA][Aze][NMeCha][Sar][hPhe(3-Cl-4-CF3)]P[Ac5c][NMeV][NMeD]-Piperidide; lactam N-11),8.01
15,CC[C@H](C)[C@@H]1NC(=O)[C@H](C)NC(=O)C[C@@H](C)N(C)C(=O)[C@H](CC(C)C)N(C)C(=O)[C@H](Cc2ccccc2)N(C)C(=O)[C@H](CC(C)C)NC(=O)[C@H](CCc2ccc(C(F)(F)F)cc2)NC(=O)CN(C)C(=O)[C@H](Cc2ccc(Cl)cc2)N(C)C(=O)CN(C)C(=O)CN(C)C1=O [Compound 406] (cyclo(AI[Sar][Sar][NMePhe(4-Cl)][Sar][hPhe(4-CF3)]L[NMeF][NMeL][NMedβ3hAla])),6.60
16,CC[C@H](C)[C@@H]1NC(=O)[C@H](CC(C)C)N(C)C(=O)C[C@@H](C)NC(=O)[C@H](C(C)C)N(C)C(=O)C2(CCCC2)NC(=O)[C@@H]2CCCN2C(=O)[C@H](CCc2ccc(C(F)(F)F)c(Cl)c2)NC(=O)CN(C)C(=O)[C@H](CC2CCCCC2)N(C)C(=O)[C@@H]2CCN2C(=O)[C@H](CC)N(C)C1=O [Compound 1593] (cyclo([Ac5c][NMeV][d(β3hA)][NMeL]I[NMeAbu][Aze][NMeCha][Sar][hPhe(3-Cl-4-CF3)]P)),6.85
17,CCO[C@@H]1C[C@H]2C(=O)NC3(CCCC3)C(=O)N(C)[C@@H](C3CCCCC3)C(=O)N(C)[C@H](C)CC(=O)N(C)[C@@H](CC(C)C)C(=O)N[C@@H]([C@@H](C)CC)C(=O)N(C)[C@@H](C)C(=O)N3CC[C@H]3C(=O)N(C)[C@@H](Cc3ccc(C(F)(F)F)cc3)C(=O)N(C)CC(=O)N[C@@H](CCc3ccc(C(F)(F)F)c(Cl)c3)C(=O)N2C1 [Compound 652] (cyclo([Ac5c][NMeChg][NMedβ3hAla][NMeL]I[NMeA][Aze][NMePhe(4-CF3)][Sar][hPhe(3-Cl-4-CF3)][Hyp](Et))),8.37
